Data reported in patent US11926679B2, “Oligopeptide search method, oligopeptide, modified peptide, and immunoassay method” (ZEON CORPORATION, priority 2016, dated 2024).

Experiments:
[1] = test system: CHO (Chinese Hamster Ovary) cells; experiment: CHO cell shape on polypeptide-coated 1060R plate; format: cell-based; conditions: microscope, 5 hours after the start of culture, serum-free medium, coating 10 μg/ml
Experimental: Each of the solutions which this Polypeptide 3 and Polypeptide 2 obtained in Example 2 were dissolved in PBS in a concentration of 10 μg/ml respectively was filter-sterilized. To an EOG-sterilized 1060R plate, 50 μL per well of each of the resultant solution was added. The plates were allowed to stand at room temperature (25° C.) for 1 hour.
After allowed to stand, each of the 1060R plates incubated with Polypeptide 3 and Polypeptide 2 obtained in Example 2 was washed three times with sterilized PBS to obtain a Polypeptide 3-coated 1060R plate and a Polypeptide 2-coated 1060R plate.
To wells of the two plates thus obtained and a 1060R plate that was not coated with a polypeptide, CHO (Chinese Hamster Ovary) cells suspended in a serum-free medium (serum free medium ESF SFM Serum⋅Free Medium for Hybridoma, CHO & 293 Cells, manufactured by Expression Systems, LLC) were added and maintained the culture in a CO2 incubator at 37° C.

[2] = Evaluation of adhesiveness to the container (anti-6-His detection, absorbance at 450 nm); format: binding
Experimental: Polypeptide 1, Polypeptide 2, and a human normal IgG antibody (manufactured by Wako Pure Chemical Industries, Ltd.) were dissolved in a PBS solution and 10% DMSO in PBS (10% DMSO PBS) each in a concentration of 10 μg/ml to give various solutions.
To a 96-well plate obtained by injection molding of a hydride of a norbornene-based ring-opened polymer [Zeonor® 1060R, manufactured by Zeon Corporation] (hereinafter referred to as a “1060R plate”) and a 96-well plate made of polystyrene (product name “Falcon® (Falcon is a registered trademark in Japan, other countries, or both)”, manufactured by Corning Incorporated; hereinafter referred to as a “TCPS plate”), each of the polypeptide solutions prepared above was added in an amount of 50 μL/well (N=3) and the plates were allowed to stand at room temperature (25° C.) for 1 hour.
After allowed to stand, the insides of the wells of the 1060R plate and the TCPS plate were washed three times with T-TBS (0.05 m Tris hydrochloric acid, 0.15 m sodium chloride, 0.05% Tween® 20; pH 7.6). […]
For the wells of each plate, the absorbance at 450 nm was measured using a well plate reader apparatus (manufactured by CORONA ELECTRIC Co., Ltd.).

[3] = Phage display peptide library search on norbornene-based polymer culture dish; format: binding; conditions: tertiary phage solutions; washes with PBS, Glycine HCl pH 2, Glycine NaOH pH 10, then PBS containing 10% DMSO
Experimental: As a phage display peptide library, Ph.D.-C7C Phage Display Peptide Library Kit (manufactured by New England Biolabs Japan Inc.) was used.
The phage solution was dissolved in a phosphate buffer (PBS; a mixed solution of 137 mmol/l NaCl, 8.1 mmol/l Na2HPO4, 2.68 mmol/l KCl, and 1.47 mmol/l KH2PO4, pH 7.4) to give a peptide library.
Thereafter, the bottom of the culture dish was washed three times with PBS.
Subsequently, it was washed once with 40 mM Glycine HCl Buffer (pH 2.2) adjusted to pH 2, and further, 40 mM Glycine NaOH (pH 10) adjusted to pH 10 was added dropwise to it.
The dropped solution was collected, and the pH was immediately neutralized with a dilute hydrochloric acid (pH=7.0) to obtain a “phage solution washed with an alkali and collected”.
Subsequently, a PBS containing 10% DMSO was added dropwise to the bottom of the culture dish, and the dropped solution was collected to obtain a “phage solution washed with DMSO and collected.” […]
The gene sequences of the phages contained in the two phage solutions obtained by acquisition of the tertiary phage solutions were read to obtain corresponding amino acid sequences.

[4] = Blocking effect against non-specific adsorption of antibody, 1060R plate; conditions: solution containing no protein, 0.05% or 0.2% in PBS, FIG. 8
Source text: (§1) The container on which the synthetic BNP antigen was immobilized was blocked in the same manner as in Example 5, using a phosphate buffered saline containing 10% blocking agent (manufactured by NACALAI TESQUE, INC., product name “Blocking One”) containing a widely used casein (“Blocking One having a final concentration of 10%”), a phosphate buffered saline containing 0.05% Tween® 20 (“Tween® 20 PBS having a final concentration of 0.05%”), and a phosphate buffered saline containing 0.2% Tween® 20 (“Tween® 20 PBS having a final concentration of 0.2%”) as blocking agents, and compared to the condition without the blocking treatment.
(§2) As microwell plates, the 1060R plate (experimental example) and the PS plate (comparative example) were used. […]
(§3) After the resultant was allowed to stand, the solution in the wells was removed, followed by washing three times with a phosphate buffered saline containing 0.05% Tween® 20. […] After adding 0.1 M sulfuric acid as a stop solution, the absorbance at 450 nm was measured with a light absorption plate reader.
(§4) The value for each condition was determined using the relative value to the measured absorbance value of the well that was not subjected to blocking in the 1060R plate.

[5] = Blocking effect against non-specific adsorption of antibody, PS plate; conditions: containing no protein, FIG. 8
Source text: as §1, §2, §3, §4

[6] = Adsorption of antigen to multi-well plate, 1060R plate; format: binding; conditions: FIG. 6
Source text: (§5) The condition for adsorption of an antigen to a multi-well plate was examined. A comparison of adsorption of an antigen was made by using a 96-well plate obtained by injection molding of a hydride of a norbornene-based ring-opened polymer [Zeonor® 1060R, manufactured by Zeon Corporation] (hereinafter referred to as a “1060R plate”) and a 96-well plate made of polystyrene (product name “SUMILON® (SUMILON is a registered trademark in Japan, other countries, or both) ELISA Plate H”, manufactured by Sumitomo Bakelite Co., Ltd.; hereinafter referred to as a “PS plate”).
(§6) A peptide in which the amino acid sequence of […](SEQ ID NO: 7) that has the property of specifically attaching to a norbornene-based polymer is bound to the N terminal of the amino acid sequence of Cys-Lys-Val-Leu-Arg-Arg-His (SEQ ID NO: 6) of the antibody recognition site of the human BNP (brain natriuretic peptide) (hereinafter referred to as a “synthetic BNP antigen”) was synthesized. […]
(§7) Then, the synthetic BNP antigen immobilized in the plate was allowed to develop a color using a coloring reagent (manufactured by NACALAI TESQUE, INC., product name “ELISA POD Substrate TMB Solution”), and quenched with a dilute sulfuric acid, followed by measuring the absorbance at 450 nm by an absorbance plate reader.

[7] = Adsorption of antigen to multi-well plate, PS plate; format: binding; conditions: FIG. 6
Source text: as §5, §6, §7

ACTVDSCLTCGGGGGHHHHHH [Polypeptide 2]
shape of CHO cells on coated 1060R plate [1]: rounded shapes
absorbance at 450 nm of the 1060R plate compared with the TCPS plate ([2]; 10 μg/ml polypeptide, 1 hour at room temperature, FIG. 2): higher than that of the TCPS plate
adhesiveness to a norbornene-based polymer ([2]; conclusion from FIG. 2): high adhesiveness

ACTVDSCLTCGGGGGRGDSPHHHHHH [Polypeptide 3]
shape of CHO cells on coated 1060R plate [1]: shapes in which the cells were stretched

TVDNSLA [Thr-Val-Asp-Asn-Ser-Leu-Ala]
adhesion/elution behaviour of the amino acid sequence on the norbornene-based polymer dish [3]: eluting at a high pH

TVDSCLT [Thr-Val-Asp-Ser-Cys-Leu-Thr]
adhesion/elution behaviour of the amino acid sequence on the norbornene-based polymer dish [3]: continued to adhere even after washed with an alkali and was eluted with an organic solvent

polyoxyethylene sorbitan monolaurate [Tween® 20]
blocking effect (relative absorbance at 450 nm) [4]: a blocking effect was observed
blocking effect (relative absorbance at 450 nm) [5]: a blocking effect was lower as compared to a blocking agent containing a protein

synthetic BNP antigen: peptide in which SEQ ID NO: 7 (norbornene polymer-attaching sequence) is bound to the N terminal of SEQ ID NO: 6, antibody recognition site of human BNP (ACTVDSCLTCGGGGGSSSGLGCKVLRRH)
attachment of antigen to the plate (absorbance at 450 nm) [6]: attached
attachment of antigen to the plate (absorbance at 450 nm) [7]: not attached
